Measured values from ChEMBL document CHEMBL1136674, “Antimycobacterial pimarane diterpenes from the Fungus Diaporthe sp” (Bioorg Med Chem Lett, 2003).
≈ marks a conversion by molar mass, not a printed value.

Key:
[1] = system: Mycobacterium tuberculosis; experiment: Antitubercular activity against Mycobacterium tuberculosis; format: functional
Vero = experiment: Cytotoxicity against vero cell line; format: functional, cell-based; conditions: Chlorocebus sabaeus
BC1 cell line = experiment: Cytotoxicity against BC-1 cell line; format: functional, cell-based; conditions: Homo sapiens
KB = experiment: Cytotoxicity against KB cell line; format: functional, cell-based; conditions: Homo sapiens

C=C[C@]1(C)C=C2C(O)[C@]3(O)OC[C@@]4(CCCC(C)(C)[C@@]43O)[C@@]2(O)[C@H](O)C1 (stereo partly drawn) [DIAPORTHEIN A]
MIC [1]: 200 µg/mL (≈ 546 µM)
IC50 (Vero): > 50 µg/mL

C=C[C@]1(C)C=C2C(=O)[C@]3(O)OC[C@@]4(CCCC(C)(C)[C@@]43O)[C@@]2(O)[C@H](O)C1 [DIAPORTHEIN B]
MIC [1]: 3.1 µg/mL (≈ 8.51 µM)
IC50 (Vero): 1.5 µg/mL (≈ 4.12 µM)

Cc1c2ccncc2c(C)c2c1[nH]c1ccccc12 [ELLIPTECINE]
IC50 (BC1 cell line): 0.3 µg/mL (≈ 1.22 µM)
IC50 (KB): 0.3 µg/mL (≈ 1.22 µM)

NNC(=O)c1ccncc1 [ISONIAZID]
MIC [1]: 0.09 µg/mL (≈ 0.656 µM)

NC[C@H]1O[C@H](O[C@H]2[C@H](O)[C@@H](O[C@H]3O[C@H](CO)[C@@H](O)[C@H](N)[C@H]3O)[C@H](N)C[C@@H]2N)[C@H](O)[C@@H](O)[C@@H]1O.O=S(=O)(O)O [KANAMYCIN SULFATE]
MIC [1]: 5 µg/mL
